Patent US8959984B2, “Proteome-wide quantification of small molecule binding to cellular target proteins” (priority 2007, dated 2015)

Experiments:
Experiment in all cases: binding to VI16742 beads (HeLa lysate, SILAC MS)
CSK (IPI00013212) = biological target: T1, CSK (IPI00013212) (Homo sapiens, UniProt P41240)
T1 construct: endogenous in cells; host or cells: HeLa S3 cell lysate
Excerpt: (§1) In an alternative implementation of the chemical proteomic approach according to the invention, the broadly-selective pyrido[2,3-d]pyrimidine-based kinase inhibitor VI16742 has been used for affinity capture (FIG. 10a). […] As shown by gene ontology analysis, the corresponding molecular functions were highly over-represented in proteins specifically retained by the inhibitor resin (FIG. 10b).

DCI (IPI00300567) = biological target: T2, DCI (IPI00300567) (Homo sapiens, UniProt P42126)
T2 construct: endogenous in cells; host or cells: HeLa S3
T2 sequence (P42126 42-302): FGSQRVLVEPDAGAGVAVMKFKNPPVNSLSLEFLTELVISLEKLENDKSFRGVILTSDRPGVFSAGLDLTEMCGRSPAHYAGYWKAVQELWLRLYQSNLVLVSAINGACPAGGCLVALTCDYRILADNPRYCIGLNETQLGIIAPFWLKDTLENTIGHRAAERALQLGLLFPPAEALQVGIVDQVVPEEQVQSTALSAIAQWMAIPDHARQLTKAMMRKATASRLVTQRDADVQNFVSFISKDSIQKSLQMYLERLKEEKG
Excerpt: as §1

[1] = biological target: T3, OSR1 (OXSR1, IPI00010080) (Homo sapiens, UniProt O95747)
T3 construct: endogenous in cells; host or cells: HeLa S3
Excerpt: as §1

ROCK2 (IPI00307155) = biological target: T4, ROCK2 (IPI00307155) (Homo sapiens, UniProt O75116)
T4 construct: endogenous in cells; host or cells: HeLa S3
Excerpt: as §1

[2] = biological target: T5, TAO1 (TAOK1, IPI00002232) (Homo sapiens, UniProt Q7L7X3)
T5 construct: endogenous in cells; host or cells: HeLa S3
T5 sequence (Q7L7X3 1-1001): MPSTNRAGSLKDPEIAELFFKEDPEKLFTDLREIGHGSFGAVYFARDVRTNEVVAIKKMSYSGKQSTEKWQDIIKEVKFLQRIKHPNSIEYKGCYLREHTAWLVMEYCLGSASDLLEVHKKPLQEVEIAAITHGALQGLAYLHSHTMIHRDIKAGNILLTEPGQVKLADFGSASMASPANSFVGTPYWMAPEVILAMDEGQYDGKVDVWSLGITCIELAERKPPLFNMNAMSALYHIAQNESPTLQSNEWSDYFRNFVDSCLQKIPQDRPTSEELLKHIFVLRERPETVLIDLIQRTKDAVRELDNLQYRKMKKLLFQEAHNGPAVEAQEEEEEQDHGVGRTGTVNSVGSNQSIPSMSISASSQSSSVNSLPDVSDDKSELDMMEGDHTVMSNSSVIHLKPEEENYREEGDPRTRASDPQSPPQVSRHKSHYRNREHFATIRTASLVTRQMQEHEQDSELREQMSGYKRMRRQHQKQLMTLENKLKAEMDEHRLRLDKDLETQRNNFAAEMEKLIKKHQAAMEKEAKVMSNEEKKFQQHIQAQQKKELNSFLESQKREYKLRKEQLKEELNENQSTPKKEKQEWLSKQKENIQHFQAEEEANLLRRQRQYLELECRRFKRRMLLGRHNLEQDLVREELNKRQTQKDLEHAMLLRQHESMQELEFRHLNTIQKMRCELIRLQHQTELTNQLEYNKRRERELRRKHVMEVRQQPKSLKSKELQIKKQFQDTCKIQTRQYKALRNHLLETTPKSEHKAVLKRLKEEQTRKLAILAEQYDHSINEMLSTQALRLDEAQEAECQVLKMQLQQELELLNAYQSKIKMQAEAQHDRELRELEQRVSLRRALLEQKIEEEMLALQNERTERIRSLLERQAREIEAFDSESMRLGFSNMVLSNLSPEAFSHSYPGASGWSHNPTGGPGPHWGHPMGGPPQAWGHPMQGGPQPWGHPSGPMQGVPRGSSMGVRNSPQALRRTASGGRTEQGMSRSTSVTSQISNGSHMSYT
Excerpt: as §1

[3] = biological target: T6, TAO3 (TAOK3, IPI00410485) (Homo sapiens, UniProt Q9H2K8)
T6 construct: endogenous in cells; host or cells: HeLa S3
T6 sequence (Q9H2K8 1-898): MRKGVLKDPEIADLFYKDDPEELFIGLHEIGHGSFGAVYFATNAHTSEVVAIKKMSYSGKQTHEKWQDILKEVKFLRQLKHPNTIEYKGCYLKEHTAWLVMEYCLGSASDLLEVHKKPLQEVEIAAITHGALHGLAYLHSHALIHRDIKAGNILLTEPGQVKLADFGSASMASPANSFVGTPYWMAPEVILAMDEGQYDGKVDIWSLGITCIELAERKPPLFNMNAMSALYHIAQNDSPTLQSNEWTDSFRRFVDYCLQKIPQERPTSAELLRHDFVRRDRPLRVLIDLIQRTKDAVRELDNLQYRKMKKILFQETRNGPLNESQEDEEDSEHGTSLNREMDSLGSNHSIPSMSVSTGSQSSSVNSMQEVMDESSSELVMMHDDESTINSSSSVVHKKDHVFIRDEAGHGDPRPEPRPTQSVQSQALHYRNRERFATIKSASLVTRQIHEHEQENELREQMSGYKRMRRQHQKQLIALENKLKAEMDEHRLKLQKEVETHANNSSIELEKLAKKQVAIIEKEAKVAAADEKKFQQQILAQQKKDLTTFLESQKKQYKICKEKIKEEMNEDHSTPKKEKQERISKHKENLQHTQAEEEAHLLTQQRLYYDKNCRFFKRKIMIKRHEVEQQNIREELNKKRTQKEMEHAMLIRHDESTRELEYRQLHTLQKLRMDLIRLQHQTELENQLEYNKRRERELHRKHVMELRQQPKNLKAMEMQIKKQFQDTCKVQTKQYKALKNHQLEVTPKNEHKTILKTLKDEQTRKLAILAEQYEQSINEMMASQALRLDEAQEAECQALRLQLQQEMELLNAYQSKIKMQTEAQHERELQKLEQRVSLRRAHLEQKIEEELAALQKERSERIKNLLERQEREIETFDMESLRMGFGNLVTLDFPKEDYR
Excerpt: as §1

[4] = control beads vs first incubation

T4 sequence (O75116 whole entry): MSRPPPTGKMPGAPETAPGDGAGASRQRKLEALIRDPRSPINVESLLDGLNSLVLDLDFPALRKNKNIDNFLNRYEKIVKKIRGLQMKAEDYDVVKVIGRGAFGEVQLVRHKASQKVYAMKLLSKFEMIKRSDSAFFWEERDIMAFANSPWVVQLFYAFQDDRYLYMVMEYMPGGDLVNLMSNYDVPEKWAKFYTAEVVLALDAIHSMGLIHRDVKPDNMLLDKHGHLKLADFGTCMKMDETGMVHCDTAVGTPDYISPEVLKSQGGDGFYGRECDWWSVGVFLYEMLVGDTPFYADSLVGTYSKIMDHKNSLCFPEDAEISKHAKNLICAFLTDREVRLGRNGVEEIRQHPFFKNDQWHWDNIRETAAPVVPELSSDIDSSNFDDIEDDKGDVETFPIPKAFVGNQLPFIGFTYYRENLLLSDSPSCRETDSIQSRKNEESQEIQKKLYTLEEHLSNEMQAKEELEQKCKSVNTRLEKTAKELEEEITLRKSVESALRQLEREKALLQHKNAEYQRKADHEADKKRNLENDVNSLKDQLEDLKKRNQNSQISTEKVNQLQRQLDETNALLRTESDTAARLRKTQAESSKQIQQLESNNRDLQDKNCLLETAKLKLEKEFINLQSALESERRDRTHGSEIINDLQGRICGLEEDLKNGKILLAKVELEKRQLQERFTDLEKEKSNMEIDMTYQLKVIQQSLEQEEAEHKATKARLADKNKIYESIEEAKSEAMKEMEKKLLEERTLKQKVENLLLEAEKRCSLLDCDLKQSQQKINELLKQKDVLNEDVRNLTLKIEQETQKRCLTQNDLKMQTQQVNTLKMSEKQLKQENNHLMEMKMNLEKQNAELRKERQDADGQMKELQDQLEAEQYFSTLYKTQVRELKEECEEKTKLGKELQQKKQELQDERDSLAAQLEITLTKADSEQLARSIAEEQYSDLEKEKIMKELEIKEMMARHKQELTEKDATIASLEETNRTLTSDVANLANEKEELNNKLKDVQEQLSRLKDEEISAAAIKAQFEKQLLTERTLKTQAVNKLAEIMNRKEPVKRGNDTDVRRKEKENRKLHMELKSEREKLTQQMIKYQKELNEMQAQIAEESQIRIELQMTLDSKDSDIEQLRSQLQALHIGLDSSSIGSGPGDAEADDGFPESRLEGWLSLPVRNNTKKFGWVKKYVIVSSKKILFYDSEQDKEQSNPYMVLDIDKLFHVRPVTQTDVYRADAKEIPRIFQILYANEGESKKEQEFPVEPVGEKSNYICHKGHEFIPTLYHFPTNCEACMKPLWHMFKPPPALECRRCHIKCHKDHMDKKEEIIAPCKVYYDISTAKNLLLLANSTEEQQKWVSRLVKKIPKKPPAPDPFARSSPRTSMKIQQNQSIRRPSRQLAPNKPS
T3 sequence (O95747 whole entry): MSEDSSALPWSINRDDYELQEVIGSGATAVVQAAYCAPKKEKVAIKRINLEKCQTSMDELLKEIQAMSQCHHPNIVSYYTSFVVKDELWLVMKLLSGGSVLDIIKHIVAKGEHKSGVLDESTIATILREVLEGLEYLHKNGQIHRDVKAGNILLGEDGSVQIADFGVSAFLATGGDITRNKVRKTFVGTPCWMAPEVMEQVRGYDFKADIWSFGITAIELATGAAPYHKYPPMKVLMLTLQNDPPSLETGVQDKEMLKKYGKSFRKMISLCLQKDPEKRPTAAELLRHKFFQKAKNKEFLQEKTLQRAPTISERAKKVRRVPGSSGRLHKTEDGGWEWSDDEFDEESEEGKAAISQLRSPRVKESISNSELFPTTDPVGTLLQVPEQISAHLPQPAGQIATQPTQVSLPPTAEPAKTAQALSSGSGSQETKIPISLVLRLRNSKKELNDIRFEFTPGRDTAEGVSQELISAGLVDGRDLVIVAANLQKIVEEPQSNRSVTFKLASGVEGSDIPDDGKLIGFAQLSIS
T1 sequence (P41240 whole entry): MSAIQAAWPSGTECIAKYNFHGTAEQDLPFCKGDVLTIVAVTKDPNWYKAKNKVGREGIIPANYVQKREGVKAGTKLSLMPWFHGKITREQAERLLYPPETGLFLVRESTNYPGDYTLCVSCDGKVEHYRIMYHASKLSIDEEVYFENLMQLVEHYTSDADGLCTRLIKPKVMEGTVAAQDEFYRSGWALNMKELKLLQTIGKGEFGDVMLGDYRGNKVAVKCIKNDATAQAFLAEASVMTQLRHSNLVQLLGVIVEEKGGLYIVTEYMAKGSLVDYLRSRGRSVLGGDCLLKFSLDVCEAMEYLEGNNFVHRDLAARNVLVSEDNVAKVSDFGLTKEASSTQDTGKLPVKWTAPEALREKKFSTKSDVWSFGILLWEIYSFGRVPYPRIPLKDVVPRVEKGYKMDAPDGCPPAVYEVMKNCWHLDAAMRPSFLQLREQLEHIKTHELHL

SMILES: CC(C)n1c(=O)ccc2cnc(Nc3ccc(OCCN)cc3)nc21 [V16742]
- r (5 h/2.5 h INC. TIME) (CSK (IPI00013212); 5 h vs 2.5 h incubation time): 1.51
- rAVERAGE (CTRL/1 INC) (CSK (IPI00013212); [4]): 0.02
- Ki (CSK (IPI00013212); immobilized VI16742): 79.5 µM
- rAVERAGE (2 INC/1 INC) (CSK (IPI00013212); second vs first incubation): 0.60
- r (3 MG/1 MG LYSATE) (DCI (IPI00300567); 3 mg vs 1 mg lysate): 3.25
- r (5 h/2.5 h INC. TIME) (DCI (IPI00300567); 5 h vs 2.5 h incubation time): 1.68
- rAVERAGE (CTRL/1 INC) (DCI (IPI00300567); [4]): 0.04
- Ki (DCI (IPI00300567); immobilized VI16742): 236 µM
- rAVERAGE (2 INC/1 INC) (DCI (IPI00300567); second vs first incubation): 0.82
- rAVERAGE (CTRL/1 INC) [1, 4]: 0.05
- Ki ([1]; immobilized VI16742): 207 µM
- rAVERAGE (2 INC/1 INC) ([1]; second vs first incubation): 0.80
- r (3 MG/1 MG LYSATE) (ROCK2 (IPI00307155); 3 mg vs 1 mg lysate): 3.18
- r (5 h/2.5 h INC. TIME) (ROCK2 (IPI00307155); 5 h vs 2.5 h incubation time): 1.74
- rAVERAGE (CTRL/1 INC) (ROCK2 (IPI00307155); [4]): 0.08
- Ki (ROCK2 (IPI00307155); immobilized VI16742): 255 µM
- rAVERAGE (2 INC/1 INC) (ROCK2 (IPI00307155); second vs first incubation): 0.83
- r (3 MG/1 MG LYSATE) ([2]; 3 mg vs 1 mg lysate): 2.64
- r (5 h/2.5 h INC. TIME) ([2]; 5 h vs 2.5 h incubation time): 1.02
- rAVERAGE (CTRL/1 INC) [2, 4]: 0.06
- Ki ([2]; immobilized VI16742): 162 µM
- rAVERAGE (2 INC/1 INC) ([2]; second vs first incubation): 0.76
- r (3 MG/1 MG LYSATE) ([3]; 3 mg vs 1 mg lysate): 2.95
- rAVERAGE (CTRL/1 INC) [3, 4]: 0.09
- Ki ([3]; immobilized VI16742): 116 µM
- rAVERAGE (2 INC/1 INC) ([3]; second vs first incubation): 0.69
